pIC50: −log10 of the molar value. “Also recorded” adds a separate entry of the source. Counter-ions that a name gives are not always drawn. Like-named read-outs stand apart in the source and are kept apart here.
Columns and labels:
[1] = system: Jc1 378-1 TagRFP reporter HCV virus; assay: In vitro inhibition of HCV in Huh-7.5 cells; assay type: cell-based, hepatitis C virus; details: for inhibition of HCV replication: Huh-7.5 cells, MOI=0.1, 3 dpi; for mean fluorescence intensity (MFI) of HCV positive cells: normalized to DMSO control
Experimental: The compound of formula (II) was also tested for the in vitro inhibition of HCV. Huh-7.5 cells were seeded in a 24-well plates (50,000 cells/well) and incubate over night. The medium was changed to compound/solvent containing medium 2 hours prior to infection (200 μL/well) with a reporter HCV virus called Jc1 378-1 TagRFP. A dilute virus stock was used to infect at a MOI of 0.1 (7,500 IU/well) in 10 μL medium. 10 μL of virus dilution was added to the wells containing compound/solvent (thereby dilution the compounds by only ˜5%). Infections were incubated for 4 hours before washing off the inoculum 1× with 500 μL medium. Fresh compound/solvent containing medium was added to the cells (500 μL/well), and further incubated for 48-72 hours. Cells were harvested at 48-72 hpi and viral replication was determined by fixing the cells and measuring replication by FACS (fluorescence activated cell sorting). Controls having antibodies that neutralize HCV by blocking E2 (2 μg/mL) and controls having antibodies that block a HCV receptor CD81 (2 μg/mL) were used.
A series of tests were conducted using the compound of Formula II ML278), other known inhibitors of SRB1 and controls with cells infected with hepatitis C virus (HCV). The cells (Huh-7.5 cells infected with Jc1 378-1 TagRFP (MOI=0.1) 3 dpi) were treated with the following SR-BI compounds and controls:
Three different infection protocols were followed: (1) no wash—virus inoculum was removed 4 hpi and fresh medium containing compounds added without washing cells; (2) 5× wash—virus inoculum was removed 4 hpi, cells were washed 5× with PBS and fresh medium containing compounds added; and (3) no wash Opt—infection were performed in serum-free OptiMem; virus inoculum was removed 4 hpi and fresh medium containing compounds added without washing cells. FIG. 107 provides a comparison of the three different infection set-ups. FIG. 108 provides a comparison of two independent experiments.

[2] = biological target: T1, murine SR-BI (Mus musculus, UniProt Q61009); assay: DiI-HDL uptake assay (primary assay); assay type: cell-based
T1 construct: expressed in transfected cells; host or cells: ldlA[mSR-BI]; (CHO ldlA7 derivative lacking the LDL receptor)
T1 sequence (Q61009 1-509): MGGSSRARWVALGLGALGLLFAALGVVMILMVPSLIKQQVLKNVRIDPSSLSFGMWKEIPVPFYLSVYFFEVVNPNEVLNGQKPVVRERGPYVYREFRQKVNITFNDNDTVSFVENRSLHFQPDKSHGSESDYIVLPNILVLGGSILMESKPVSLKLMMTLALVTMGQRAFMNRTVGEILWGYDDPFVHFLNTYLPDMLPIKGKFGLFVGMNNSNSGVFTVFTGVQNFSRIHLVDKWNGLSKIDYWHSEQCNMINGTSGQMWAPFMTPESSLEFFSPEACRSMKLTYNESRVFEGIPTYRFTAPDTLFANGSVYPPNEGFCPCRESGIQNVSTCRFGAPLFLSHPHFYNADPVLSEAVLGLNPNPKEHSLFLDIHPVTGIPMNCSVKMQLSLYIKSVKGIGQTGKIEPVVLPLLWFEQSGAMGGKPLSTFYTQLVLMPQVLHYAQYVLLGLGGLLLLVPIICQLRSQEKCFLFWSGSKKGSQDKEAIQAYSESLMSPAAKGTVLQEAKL
Excerpt: The following cell lines were used in this study: • ldlA[mSR-BI] is a Chinese hamster ovary (CHO) cell line that overexpresses murine SR-BI, isoform 1 (NP_058021) and was obtained from the Assay Provider (Krieger Laboratory). This cell line was used for the primary assay and several secondary assays. […] This cell line was obtained from the Assay Provider. Assays DiI-HDL Uptake Assay (Primary Assay AID Nos. 488896, 493194, 540354 588392, 588553, 588548, 588754, 588828, 588833)
ldlA[mSR-BI]cells were plated into 384-well plates at 30 μl per well and incubated overnight. As a measurable surrogate for cholesterol uptake, human HDL particles were treated with the lipophilic fluorescent dye DiI and exposed to ldlA[mSR-BI]cells in lipoprotein-free media (Ham's F12/0.5% fatty acid-free Bovine Serum Albumin (BSA)/25 mM HEPES pH 7.4 plus 10 μg protein/ml DiI-HDL). Cells took up the DiI via SR-BI over 3 hours in the presence of compound. After significant uptake of the DiI, the cells became fluorescent. The level of fluorescence correlates with the amount of DiI uptake and can be measured with a standard plate reader (here a PerkinElmer EnVision plate reader was used). The uptake of lipid (represented by DiI) was inhibited by the positive control compound BLT-1 or with an excess of HDL untreated with DiI. Primary HTS data were analyzed in Genedata Screener Assay Analyzer, and were normalized against DMSO and the positive control (1 μM BLT-1). For the HTS, the average of two replicates was used to rank order activity and to choose compounds for retests. For dose studies, percent (%) activity was determined for each concentration and the concentration response curves (CRCs) were generated with Genedata Condeseo.
To identify novel inhibitors, SR-BI-mediated lipid uptake was measured in an engineered cell line that minimized potential uptake by other mechanisms, including via the LDL receptor (1). ldlA[mSR-BI]cells overexpress murine isoform 1 and selectively take up HDL lipid at similar levels as “has been reported for cultured mouse adrenal cells, perfused organs, and liver, adrenal gland and ovary in vivo” (1). This primary cell-based assay was used in a pilot screen that identified BLTs 1 through 5 (12). The assay was slightly modified from the original protocol of Nieland et al. to increase throughput and to ease automation procedures.

[3] = system: endocytosis of transferrin; assay: Transferrin endocytosis assay; assay type: cell-based
Excerpt: Transferrin Endocytosis Assay (SA 3: AID No. 602134) This assay measures the endocytosis of an independent ligand, transferrin, which is not taken up via SR-BI but by clathrin-mediated endocytosis. This assay provides a measure of the selectivity of the inhibitors. Alexa-594-labeled transferrin is taken into the cell via endocytosis and localization of labeled transferrin was quantitated in the various intracellular compartments. […] Inhibitors of interest should act selectively at SR-BI and should have no activity in this assay. Cells were pre-treated with compound for 3 hours and then treated with the Alexa-594 transferrin reagent for 30 minutes (Catalog No. T-13343; Invitrogen) in serum-free media. Plates of cells were then placed onto ice, washed with ice cold PBS, and then fixed with 4% paraformaldehyde. In addition, the nuclei were stained with 300 nM 4′,6-diamidino-2-phenylindole (DAPI) (Catalog No. 21490; Invitrogen). The cells were imaged with the Molecular Devices IXM microscope (FIG. 22). Translocation measurements were performed using MetaExpress software and normalized for cell number.

COc1c(NC(=O)C(=O)c2ccc(OCCN3CCOCC3)c3ccccc23)cc(C(C)(C)C)cc1NS(C)(=O)=O [ITX-5061]
inhibition of HCV replication ([1]; listed as SRB1-9): inhibited viral replication; also recorded: able to inhibit HCV replication
mean fluorescence intensity (MFI) of HCV positive cells [1]: this increase was not seen

COc1cc(OC)cc(C(=O)Nc2nc(-c3ccc4c(c3)CCN4C(=O)OC(C)(C)C)cs2)c1 [Boc carbamate, tert-Butyl 5-(2-(3,5-dimethoxybenzamido)thiazol-4-yl)indoline-1-carboxylate]
pIC50 ([2]; read-out: IC50, DiI-HDL uptake): 9.05

CCC(=O)N1CCc2cc(-c3csc(NC(=O)c4ccco4)n3)ccc21 [MLS001217863]
endocytosis of transferrin [3]: not grossly perturbing cellular membrane trafficking pathways
pIC50 ([2]; range, read-out: range of IC50 for HDL-mediated lipid uptake): 8.22 to 9.03

CC(=O)Nc1ccc(Cl)c(C(=O)Nc2ccc(N3CCN(C(=O)OC(C)(C)C)CC3)cc2)c1 [Compound R-154716]
inhibition of HCV replication ([1]; listed as SRB1-2): inhibited viral replication; also recorded: able to inhibit HCV replication
mean fluorescence intensity (MFI) of HCV positive cells [1]: increased mean fluorescence intensity (MFI) of HCV positive cells in a dose dependent manner

COc1cc(OC)cc(C(=O)Nc2nc(-c3ccc4c(c3)CCN4)cs2)c1 [N-(4-(Indolin-5-yl)thiazol-2-yl)-3,5-dimethoxybenzamide, trifluoroacetic acid salt]
loss of activity/potency relative to parent analog [2]: approximately 3 fold

— US9951055B2, “Thiazole-based inhibitors of scavenger receptor BI” (THE BROAD INSTITUTE, INC., priority 2012, dated 2018)
